The test system of one assay is NIH 3T3 cells. The assay is described as follows: Cell death in NIH 3T3 cells. Particulars: data not shown. Type of assay: cell-based.
Assay [1] relates to MLC20 phosphorylation. The experiment in a line: MLC20 phosphorylation by urea gel/Western blotting in NIH 3T3 fibroblasts. Particulars: 500 nM actinomycin D, 0-24 hours. It is filed as cell-based. The protocol: NIH 3T3 fibroblasts were obtained from ATCC and were grown in Dulbecco's Modified Eagle Medium (DMEM) (Gibco BRL, Gaithersburg, Md.) supplemented with 10% FBS and 1% penicillin and streptomycin in a 37° C. incubator. 3T3 cells were treated with 500 nM actinomycin D in DMEM containing 0.5% FBS without antibiotics for the 0, 2, 4, 8, 16, or 24 hours. Cells were then washed with phosphate buffered saline (PBS). Floating cells were collected by centrifugation and combined with attached cells that were harvested by trypsinization. MLC20 phosphorylation was quantified be Western blotting with an anti-MLC20 antibody (FIG. 1). In short, the harvested cells were treated with ice cold 10% TCA, 10 mM DTT to precipitate the cellular proteins. The pellets were washed with acetone, dissolved in 9 M urea, 10 mM DTT, 20 mM Tris, pH 7.5 and separated using glycerol-urea polyacrylamide gel electrophoresis (PAGE). […] Protein bands were visualized with ECL reagent and the stoichiometry of phosphorylation (mol PO4/mol MLC20) was calculated as described (Obara et al., 1989, “Okadaic acid, a phosphatase inhibitor, produces a Ca2+ and calmodulin-independent contraction of lamb tracheal smooth muscle,” Pfluger's Archiv. 414: 134-138).
A general note: In western blotting, separated proteins are transferred to a membrane and probed.

Assay [2] relates to MLC20 phosphorylation. The assay is described as follows: MLC20 phosphorylation by urea gel/Western blotting in smooth muscle cells (SMC). It is filed as cell-based, pig. The protocol: NIH 3T3 fibroblasts were obtained from ATCC and were grown in Dulbecco's Modified Eagle Medium (DMEM) (Gibco BRL, Gaithersburg, Md.) supplemented with 10% FBS and 1% penicillin and streptomycin in a 37° C. incubator. 3T3 cells were treated with 500 nM actinomycin D in DMEM containing 0.5% FBS without antibiotics for the 0, 2, 4, 8, 16, or 24 hours. Cells were then washed with phosphate buffered saline (PBS). Floating cells were collected by centrifugation and combined with attached cells that were harvested by trypsinization. MLC20 phosphorylation was quantified be Western blotting with an anti-MLC20 antibody (FIG. 1). In short, the harvested cells were treated with ice cold 10% TCA, 10 mM DTT to precipitate the cellular proteins. The pellets were washed with acetone, dissolved in 9 M urea, 10 mM DTT, 20 mM Tris, pH 7.5 and separated using glycerol-urea polyacrylamide gel electrophoresis (PAGE). The proteins were transferred to nitrocellulose, the un-, mono-, and di-phosphorylated forms of MLC20 were identified using an affinity purified antibody to MLC20 and horseradish peroxidase-linked secondary antibody (Jackson ImmunoResearch, West Grove, Pa.). Protein bands were visualized with ECL reagent and the stoichiometry of phosphorylation (mol PO4/mol MLC20) was calculated as described (Obara et al., 1989, “Okadaic acid, a phosphatase inhibitor, produces a Ca2+ and calmodulin-independent contraction of lamb tracheal smooth muscle,” Pfluger's Archiv. 414: 134-138).
(§1) The stoichiometry of MLC20 phosphorylation (FIG. 1B, inset) was quantified using the urea gel/Western blotting method described above in untreated (Un) pig pulmonary artery smooth muscle cells (SMC) and SMC treated with 10 μM dexamethasone (Dex), 10 μM actinomycin D (ActD), 100 μM cycloheximide (Chx), 2 μM camptothecin (Cam), and 100 μM etoposide (Eto) for 24 hrs (mean+/−SE, n=3).
(§2) Next, in order to determine whether MLC-DP can trigger cell death, SMC were treated with ML-7 or KT5926, two inhibitors of MLCK (Nakanishi et al., 1990; Garcia, 1998; and Bain et al., 2003).
(§3) SMC cells were either treated with 10 μM cytochalasin D (CytD) or grown on the non-ionic substrate polyHema to prevent attachment.

Assay [3] concerns pig pulmonary artery smooth muscle cells. The experiment in a line: Cell death / apoptosis in smooth muscle cells (SMC). It is filed as cell-based. The protocol: as §1, §2, §3
SMC were left untreated, treated with ML-7 alone for 16 hours or treated with 50 μM z-VAD-fmk (caspase) for 1 hr followed by 20 μM ML-7 for 16 hours. […] The results represent the mean+/−SE for 3 independent experiments and * indicates a p value <0.05 using a paired T test.

A further assay relates to SMC. The experiment in a line: TUNEL staining of SMC. Type of assay: cell-based, pig. As for the experimental part: Also, cells were treated with 50 μM z-VAD-fmk for 1 hour, 20 μM ML-7 for 4 hours or 50 μM z-VAD-fmk for 1 hours followed by 20 μM ML-7 for 4 hours (FIG. 5B). The cells were then fixed and stained with TUNEL reagent and DAPI.
The mark [4] stands for this setting: 24 hrs, 10 μM Dex, 10 μM ActD, 100 μM Chx, 2 μM Cam, 100 μM Eto.

*1 amine or outer side, *2 acyl side, *3 side chain or, on linkers, in order; H or OH if unused. Where a SMILES comes first, the peptide text is derived from it. Bridges are numbered along the chain shown (N, C = ends). Roman numbers before positions name the chains, in order. [ ]: non-standard residue; d: D form. The star is where a group is joined. Actinocin(9to1) = Cc1c2oc3c(C)ccc(C(=O)[*:1])c3nc-2c(C(=O)[*:2])c(N)c1=O; NMeV = CN[C@H](C(=O)O)C(C)C; Cbz = O=C(OCc1ccccc1)*; Sar = CNCC(=O)O; CH2F = FC*

In the case of `CCCOc1ccc2c(c1)c1c3c(c4c5ccccc5n5c4c1n2[C@H]1C[C@](O)(C(=O)OC)[C@]5(C)O1)CNC3=O` (relative stereo) [KT5926, [(8R*,9S*,11S*)-(−)9-hydroxy-9-methoxycarbonyl-8-methyl-14-n-propoxy-2,3,9,10-tetrahydro-8,11-epoxy, 1H,8H, 11H-2,7b,11a-triazadibenzo [a,g]cycloocta [cde]trinden-1-one], the cell death result in the assay with NIH 3T3 cells is on record as “cell death, including genome digestion”. Regarding `Cc1c2oc3c(C)ccc(C(=O)N[C@@H]4C(=O)N[C@H](C(C)C)C(=O)N5CCC[C@H]5C(=O)N(C)CC(=O)N(C)[C@@H](C(C)C)C(=O)O[C@@H]4C)c3nc-2c(C(=O)N[C@@H]2C(=O)N[C@H](C(C)C)C(=O)N3CCC[C@H]3C(=O)N(C)CC(=O)N(C)[C@@H](C(C)C)C(=O)O[C@@H]2C)c(N)c1=O` [actinomycin D] (I: T[dV]P[Sar][NMeV] / II: T[dV]P[Sar][NMeV]; ester I:1-I:C, II:1-II:C; linker I:N-II:N via Actinocin(9to1)), the MLC20 phosphorylation result is recorded as “initial increase in MLC20 phosphorylation that was followed by MLC20 dephosphorylation” with MLC20 phosphorylation [1] and “dephosphorylated” with MLC20 phosphorylation [2] (setting [4]).

As to `CC[C@@]1(O)C(=O)OCc2c1cc1n(c2=O)Cc2cc3ccccc3nc2-1` [camptothecin], the MLC20 phosphorylation result in the assay with MLC20 phosphorylation [2] (setting [4]) is given as “dephosphorylated”. Same read-out and setting: in the case of `C[C@@H]1C[C@@H]([C@H](O)CC2CC(=O)NC(=O)C2)C(=O)[C@@H](C)C1` [cycloheximide] it was “dephosphorylated”. With `C=C1[C@@H](C)[C@H]2[C@H](Cc3ccccc3)NC(=O)[C@]23[C@H](OC(C)=O)/C=C/[C@@](C)(O)C(=O)[C@@H](C)C/C=C/[C@H]3[C@@H]1O` [cytochalasin D], the MLC20 phosphorylation result with MLC20 phosphorylation [2] (10 μM cytochalasin D overnight, vs untreated) is reported as “significant decreases”. In assay [3] (SMC, 10 μM cytochalasin D overnight, vs untreated), the cell death result was “significant increases”.

`COC(=O)C[C@H](NC(=O)[C@H](C)NC(=O)[C@@H](NC(=O)OCc1ccccc1)C(C)C)C(=O)CF` [z-VAD-fmk] (Cbz-Val-Ala-Asp(OMe)-CH2F): the “number of apoptotic cells (FACS)” value in assay [3] (50 μM z-VAD-fmk 1 hr then 20 μM ML-7 16 hours, vs ML-7 alone) was “significant decrease”. Further, the “TUNEL positive nuclei in ML-7 treated cells” value in the assay on SMC (50 μM z-VAD-fmk 1 hour then 20 μM ML-7 4 hours) was “decreased the number of TUNEL positive nuclei”. In addition, the TUNEL positive nuclei result in the assay on SMC (single agent: 50 μM z-VAD-fmk 1 hour or 20 μM ML-7 4 hours) was “very few TUNEL positive nuclei”.

The values are drawn from patent US20080081078A1, “Prevention of Cell Proliferation by Inhibiting Myosin Light Chain Kinase” (The Board of Trustees of the University of Illinois, priority 2006, published 2008).
